# Laboratory results as given in patent US9080214B2, “Genetic markers for efficacy of iloperidone in the treatment of psychotic symptoms” (Vanda Pharmaceuticals, Inc., priority 2007, dated 2015).
# Tested on: individuals diagnosed with schizophrenia
# Assay: Change in PANSS-GP subscale by SNP genotype, patients on iloperidone 24 mg/day b.i.d. for 28 days (MMRM)
# Type: in vivo, human
# Source text: Earlier studies investigated an association between a polymorphism in the CNTF gene and iloperidone efficacy as well as associations between CYP2D6 and KCNQ1 genotypes and changes in QT interval following the administration of iloperidone. The present study involved the genotyping of DNA samples collected from 426 individuals diagnosed with schizophrenia in an attempt to identify additional SNPs associated with iloperidone efficacy. Each sample was genotyped at more than 500,000 SNP loci using the GeneChip® Human Mapping 500K Array Set (Affymetrix, Santa Clara, Calif.) and using assays developed in-house. Approximately half of the participants in the study were administered 24 mg/day of iloperidone, b.i.d., for 28 days. About 25% of the patients were administered ziprasidone. The remaining participants were administered a placebo. Three analyses of the PANSS-T were conducted. 1) A two-step approach where samples were randomly split into 2 groups of iloperidone-treated patients used to discover SNPs associated with changed in PANSS-T (Discovery phase) and a second group to confirm the 100 most significant SNPs (Confirmatory phase). 2) A one-step approach using the Last Observation Carried Forward (LOCF) PANSS-T data of all iloperidone-treated patients. For each SNP, the most parsimonious genetic model (e.g., homozygous for one allele v. all other genotypes [i.e., AA v. AB and BB], heterozygous v. homozygous [i.e., AB v. AA and BB]) was established with respect to iloperidone efficacy using a one-way analysis of variance (ANOVA). 3) A Mixed-effects Model Repeated Measures (MMRM) analysis was subsequently conducted using the best genetic model of each SNP in the MMRM model. MMRM analyses were also conducted with the PANSS subscales PANSS-P, PANSS-N, and PANSS-GP. The SNPs with a statistically significant association in all 3 analyses of PANSS-T, as well as the best of each analysis were considered significant findings and are listed below in Table 1. Results for each of these SNPs with the PANSS-T scales and with the three subscales PANSS-P, PANSS-N, and PANSS-GP are shown in Tables 2, 3, 4, and 5, respectively. […] In the present case of iloperidone efficacy, it is likely that different markers are more specifically associated with one or a few specific clinical symptoms, which is reflected in the improvement measured in separate subscales.
smiles,measurement,setting,value
"COc1cc(C(C)=O)ccc1OCCCN1CCC(c2noc3cc(F)ccc23)CC1 [iloperidone, 1-[4-[3-[4-(6-fluoro-1,2-benzisoxazol-3-yl)-1-piperidinyl]propoxy]-3-methoxyphenyl]ethanone]",mean of change in PANSS-GP,SNP_A-1819750 (CREG1) genotype A_A,−8.04
same,mean of change in PANSS-GP,SNP_A-1819750 (CREG1) genotype A_B* (lowest response),−4.58
same,mean of change in PANSS-GP,SNP_A-1819750 (CREG1) genotype B_B,−6.81
same,mean of change in PANSS-GP,SNP_A-1819750 (CREG1) genotype nonAB** (highest response),−7.21
same,mean of change in PANSS-GP,SNP_A-1860353 (RAP1B) genotype A_A** (highest response),−17.20
same,mean of change in PANSS-GP,SNP_A-1860353 (RAP1B) genotype A_B,−5.17
same,mean of change in PANSS-GP,SNP_A-1860353 (RAP1B) genotype B_B,−4.96
same,mean of change in PANSS-GP,SNP_A-1860353 (RAP1B) genotype nonAA* (lowest response),−5.00
same,mean of change in PANSS-GP,SNP_A-1934663 genotype A_A,−9.38
same,mean of change in PANSS-GP,SNP_A-1934663 genotype A_B,−8.80
same,mean of change in PANSS-GP,SNP_A-1934663 genotype B_B* (lowest response),−3.07
same,mean of change in PANSS-GP,SNP_A-1934663 genotype nonBB** (highest response),−8.92
same,mean of change in PANSS-GP,SNP_A-1973093 (KIAA0040) genotype A_A,−6.40
same,mean of change in PANSS-GP,SNP_A-1973093 (KIAA0040) genotype A_B* (lowest response),−1.92
same,mean of change in PANSS-GP,SNP_A-1973093 (KIAA0040) genotype B_B,−7.77
same,mean of change in PANSS-GP,SNP_A-1973093 (KIAA0040) genotype nonAB** (highest response),−7.51
same,mean of change in PANSS-GP,SNP_A-1975928 (SLC2A9) genotype A_A,−5.82
same,mean of change in PANSS-GP,SNP_A-1975928 (SLC2A9) genotype A_B,−5.39
same,mean of change in PANSS-GP,SNP_A-1975928 (SLC2A9) genotype B_B* (lowest response),9.62
same,mean of change in PANSS-GP,SNP_A-1975928 (SLC2A9) genotype nonBB** (highest response),−5.72
same,mean of change in PANSS-GP,SNP_A-1987915 (GPR126) genotype A_A,−4.63
same,mean of change in PANSS-GP,SNP_A-1987915 (GPR126) genotype A_B,−4.28
same,mean of change in PANSS-GP,SNP_A-1987915 (GPR126) genotype B_B** (highest response),−7.14
same,mean of change in PANSS-GP,SNP_A-1987915 (GPR126) genotype nonBB* (lowest response),−4.36
same,mean of change in PANSS-GP,SNP_A-2007721 (LOC58486) genotype A_A,−2.52
same,mean of change in PANSS-GP,SNP_A-2007721 (LOC58486) genotype A_B** (highest response),−10.51
same,mean of change in PANSS-GP,SNP_A-2007721 (LOC58486) genotype B_B,−3.91
same,mean of change in PANSS-GP,SNP_A-2007721 (LOC58486) genotype nonAB* (lowest response),−3.90
same,mean of change in PANSS-GP,SNP_A-2044214 (HNT) genotype A_A,−6.83
same,mean of change in PANSS-GP,SNP_A-2044214 (HNT) genotype A_B* (lowest response),−3.34
same,mean of change in PANSS-GP,SNP_A-2044214 (HNT) genotype B_B,−5.68
same,mean of change in PANSS-GP,SNP_A-2044214 (HNT) genotype nonAB** (highest response),−6.43
same,mean of change in PANSS-GP,SNP_A-2048427 (NPAS3) genotype A_A,−9.50
same,mean of change in PANSS-GP,SNP_A-2048427 (NPAS3) genotype A_B,−9.79
same,mean of change in PANSS-GP,SNP_A-2048427 (NPAS3) genotype B_B* (lowest response),−3.44
same,mean of change in PANSS-GP,SNP_A-2048427 (NPAS3) genotype nonBB** (highest response),−9.75
same,mean of change in PANSS-GP,SNP_A-2070454 (NKX2-5) genotype A_A,−3.91
same,mean of change in PANSS-GP,SNP_A-2070454 (NKX2-5) genotype A_B,−4.34
same,mean of change in PANSS-GP,SNP_A-2070454 (NKX2-5) genotype B_B** (highest response),−8.12
same,mean of change in PANSS-GP,SNP_A-2070454 (NKX2-5) genotype nonBB* (lowest response),−4.20
same,mean of change in PANSS-GP,SNP_A-2076797 (NUDT9P1) genotype A_A,−2.80
same,mean of change in PANSS-GP,SNP_A-2076797 (NUDT9P1) genotype A_B** (highest response),−8.23
same,mean of change in PANSS-GP,SNP_A-2076797 (NUDT9P1) genotype B_B,−2.42
same,mean of change in PANSS-GP,SNP_A-2076797 (NUDT9P1) genotype nonAB* (lowest response),−2.62
same,mean of change in PANSS-GP,SNP_A-2103099 (HTR1A) genotype A_A,−7.79
same,mean of change in PANSS-GP,SNP_A-2103099 (HTR1A) genotype A_B* (lowest response),−3.42
same,mean of change in PANSS-GP,SNP_A-2103099 (HTR1A) genotype B_B,−6.80
same,mean of change in PANSS-GP,SNP_A-2103099 (HTR1A) genotype nonAB** (highest response),−7.16
same,mean of change in PANSS-GP,SNP_A-2120958 genotype A_A,−5.90
same,mean of change in PANSS-GP,SNP_A-2120958 genotype A_B,−6.13
same,mean of change in PANSS-GP,SNP_A-2120958 genotype B_B* (lowest response),1.80
same,mean of change in PANSS-GP,SNP_A-2120958 genotype nonBB** (highest response),−5.99
same,mean of change in PANSS-GP,SNP_A-2170121 (C6) genotype A_A,−3.40
same,mean of change in PANSS-GP,SNP_A-2170121 (C6) genotype A_B** (highest response),−10.21
same,mean of change in PANSS-GP,SNP_A-2170121 (C6) genotype B_B,−5.25
same,mean of change in PANSS-GP,SNP_A-2170121 (C6) genotype nonAB* (lowest response),−3.57
same,mean of change in PANSS-GP,SNP_A-2274533 (LZTS1) genotype A_A** (highest response),−7.04
same,mean of change in PANSS-GP,SNP_A-2274533 (LZTS1) genotype A_B,−2.16
same,mean of change in PANSS-GP,SNP_A-2274533 (LZTS1) genotype B_B,−2.33
same,mean of change in PANSS-GP,SNP_A-2274533 (LZTS1) genotype nonAA* (lowest response),−2.20
same,mean of change in PANSS-GP,SNP_A-2283283 (XKR4) genotype A_A* (lowest response),−0.58
same,mean of change in PANSS-GP,SNP_A-2283283 (XKR4) genotype A_B,−6.49
same,mean of change in PANSS-GP,SNP_A-2283283 (XKR4) genotype B_B,−6.90
same,mean of change in PANSS-GP,SNP_A-2283283 (XKR4) genotype nonAA** (highest response),−6.66
same,mean of change in PANSS-GP,SNP_A-2284243 (GRIA4) genotype A_A,−6.57
same,mean of change in PANSS-GP,SNP_A-2284243 (GRIA4) genotype A_B,−6.77
same,mean of change in PANSS-GP,SNP_A-2284243 (GRIA4) genotype B_B* (lowest response),−0.77
same,mean of change in PANSS-GP,SNP_A-2284243 (GRIA4) genotype nonBB** (highest response),−6.69
same,mean of change in PANSS-GP,SNP_A-4204396 (CDH13) genotype A_A,−5.87
same,mean of change in PANSS-GP,SNP_A-4204396 (CDH13) genotype A_B,−5.99
same,mean of change in PANSS-GP,SNP_A-4204396 (CDH13) genotype B_B* (lowest response),1.39
same,mean of change in PANSS-GP,SNP_A-4204396 (CDH13) genotype nonBB** (highest response),−5.91
same,mean of change in PANSS-GP,SNP_A-4212785 (PPP1R3B) genotype A_A* (lowest response),15.61
same,mean of change in PANSS-GP,SNP_A-4212785 (PPP1R3B) genotype A_B,−5.99
same,mean of change in PANSS-GP,SNP_A-4212785 (PPP1R3B) genotype B_B,−5.84
same,mean of change in PANSS-GP,SNP_A-4212785 (PPP1R3B) genotype nonAA** (highest response),−5.89
same,mean of change in PANSS-GP,SNP_A-4230979 (ASB3) genotype A_A,−1.74
same,mean of change in PANSS-GP,SNP_A-4230979 (ASB3) genotype A_B,−3.42
same,mean of change in PANSS-GP,SNP_A-4230979 (ASB3) genotype B_B** (highest response),−8.85
same,mean of change in PANSS-GP,SNP_A-4230979 (ASB3) genotype nonBB* (lowest response),−3.07
same,mean of change in PANSS-GP,SNP_A-4256833 (MLCK) genotype A_A,−7.14
same,mean of change in PANSS-GP,SNP_A-4256833 (MLCK) genotype A_B* (lowest response),−2.62
same,mean of change in PANSS-GP,SNP_A-4256833 (MLCK) genotype B_B,−6.45
same,mean of change in PANSS-GP,SNP_A-4256833 (MLCK) genotype nonAB** (highest response),−6.49
same,mean of change in PANSS-GP,SNP_A-4258279 (RRM1) genotype A_A,−4.64
same,mean of change in PANSS-GP,SNP_A-4258279 (RRM1) genotype A_B* (lowest response),−0.66
same,mean of change in PANSS-GP,SNP_A-4258279 (RRM1) genotype B_B,−6.29
same,mean of change in PANSS-GP,SNP_A-4258279 (RRM1) genotype nonAB** (highest response),−6.27
